# Key:
# Format in all cases: in vivo
# [1] = system: pigweed (Amaranthus retroflexus); test: Test A pre-/postemergence plant response
# Outline: (§1)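 Seeds in loam soil/sand blend treated preemergence by directed soil spray, with simultaneous postemergence spray on 2–10 cm plants at one- to two-leaf stage; compounds in non-phytotoxic solvent with surfactant. Injury visually rated versus untreated controls after about 10 days in greenhouse, 0 (no effect) to 100 (complete control).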
# [2] = system: wheat (Triticum aestivum); test: Test A pre-/postemergence plant response
# Outline: as §1
# [3] = system: Italian ryegrass (Lolium multiflorum); test: Test C pre-/postemergence plant response; settings: Preemergence
# Outline: (§2)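 Greenhouse-type test under controlled conditions: soil-surface preemergence treatment of sown seed and foliar postemergence treatment of seedlings 2–18 cm tall. Each compound was in non-phytotoxic solvent with surfactant. Response was rated by eye after 15–25 days, 0 to 100, against controls.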
# [4] = system: annual bluegrass (Poa annua); test: Test C pre-/postemergence plant response; settings: Preemergence
# Outline: as §2
# [5] = system: blackgrass (Alopecurus myosuroides); test: Test C pre-/postemergence plant response; settings: Preemergence
# Outline: as §2
# [6] = system: canarygrass (Phalaris minor); test: Test C pre-/postemergence plant response; settings: Preemergence
# Outline: as §2
# [7] = system: downy bromegrass (Bromus tectorum); test: Test C pre-/postemergence plant response; settings: Preemergence
# Outline: as §2
# [8] = system: green foxtail (Setaria viridis); test: Test C pre-/postemergence plant response; settings: Preemergence
# Outline: as §2
# [9] = system: pigweed (Amaranthus retroflexus); test: Test C pre-/postemergence plant response; settings: Preemergence
# Outline: as §2
# [10] = system: spring barley (Hordeum vulgare); test: Test C pre-/postemergence plant response; settings: Preemergence
# Outline: as §2
# [11] = system: spring wheat (Triticum aestivum); test: Test C pre-/postemergence plant response; settings: Preemergence
# Outline: as §2
# [12] = system: wild mustard (Sinapis arvensis); test: Test C pre-/postemergence plant response; settings: Preemergence
# Outline: as §2
# [13] = system: wild oat (Avena fatua); test: Test C pre-/postemergence plant response; settings: Preemergence
# Outline: as §2
# [14] = system: windgrass (Apera spica-venti); test: Test C pre-/postemergence plant response; settings: Preemergence
# Outline: as §2
# [15] = system: winter barley (Hordeum vulgare); test: Test C pre-/postemergence plant response; settings: Preemergence
# Outline: as §2
# [16] = system: winter wheat (Triticum aestivum); test: Test C pre-/postemergence plant response; settings: Preemergence
# Outline: as §2
# [17] = Postemergence, 31 g ai/ha, 0 to 100 scale, 0 no effect, 100 complete control
# [18] = Postemergence, 125 g ai/ha, 0 to 100 scale, 0 no effect, 100 complete control
# [19] = Preemergence, 31 g ai/ha, 0 to 100 scale, 0 is no effect, 100 is complete control
# [20] = Preemergence, 125 g ai/ha, 0 to 100 scale (0 no effect, 100 complete control)
# [21] = 8 g ai/ha, scale 0 to 100 (0 no effect, 100 complete control)
# [22] = 16 g ai/ha, scale 0 to 100 (0 no effect, 100 complete control)
# [23] = 31 g ai/ha, scale 0 to 100 (0 no effect, 100 complete control)
# [24] = 62 g ai/ha, scale 0 to 100, 0 no effect, 100 complete control
smiles,measurement,setting,value
Cc1cc(-c2ccc(Cl)cc2)nn1-c1c(OC(=O)c2cccs2)cnn(C)c1=O [Compound 52],"Plant response rating, Pigweed",[1]; [17],0
same,"Plant response rating, Pigweed",[1]; [18],0
same,"Plant response rating, Pigweed",[1]; [19],0
same,"Plant response rating, Pigweed",[1]; [20],0
same,"Plant response rating, Wheat",[2]; [17],30
same,"Plant response rating, Wheat",[2]; [18],60
same,"Plant response rating, Wheat",[2]; [19],10
same,"Plant response rating, Wheat",[2]; [20],80
same,"Plant response rating, Ryegrass, Italian",[3]; [21],0
same,"Plant response rating, Ryegrass, Italian",[3]; [22],65
same,"Plant response rating, Ryegrass, Italian",[3]; [23],90
same,"Plant response rating, Ryegrass, Italian",[3]; [24],100
same,"Plant response rating, Bluegrass",[4]; [21],0
same,"Plant response rating, Bluegrass",[4]; [22],0
same,"Plant response rating, Bluegrass",[4]; [23],10
same,"Plant response rating, Bluegrass",[4]; [24],10
same,"Plant response rating, Blackgrass",[5]; [21],40
same,"Plant response rating, Blackgrass",[5]; [22],60
same,"Plant response rating, Blackgrass",[5]; [23],95
same,"Plant response rating, Blackgrass",[5]; [24],95
same,"Plant response rating, Canarygrass",[6]; [21],0
same,"Plant response rating, Canarygrass",[6]; [22],65
same,"Plant response rating, Canarygrass",[6]; [23],90
same,"Plant response rating, Canarygrass",[6]; [24],95
same,"Plant response rating, Bromegrass, Downy",[7]; [21],0
same,"Plant response rating, Bromegrass, Downy",[7]; [22],0
same,"Plant response rating, Bromegrass, Downy",[7]; [23],15
same,"Plant response rating, Bromegrass, Downy",[7]; [24],80
same,"Plant response rating, Foxtail, Green",[8]; [21],75
same,"Plant response rating, Foxtail, Green",[8]; [22],100
same,"Plant response rating, Foxtail, Green",[8]; [23],100
same,"Plant response rating, Foxtail, Green",[8]; [24],100
same,"Plant response rating, Pigweed",[9]; [21],0
same,"Plant response rating, Pigweed",[9]; [22],0
same,"Plant response rating, Pigweed",[9]; [23],0
same,"Plant response rating, Pigweed",[9]; [24],0
same,"Plant response rating, Barley, Spring",[10]; [21],0
same,"Plant response rating, Barley, Spring",[10]; [22],0
same,"Plant response rating, Barley, Spring",[10]; [23],40
same,"Plant response rating, Barley, Spring",[10]; [24],60
same,"Plant response rating, Wheat, Spring",[11]; [21],0
same,"Plant response rating, Wheat, Spring",[11]; [22],0
same,"Plant response rating, Wheat, Spring",[11]; [23],65
same,"Plant response rating, Wheat, Spring",[11]; [24],90
same,"Plant response rating, Mustard, Wild",[12]; [21],0
same,"Plant response rating, Mustard, Wild",[12]; [22],0
same,"Plant response rating, Mustard, Wild",[12]; [23],0
same,"Plant response rating, Mustard, Wild",[12]; [24],0
same,"Plant response rating, Oat, Wild",[13]; [21],0
same,"Plant response rating, Oat, Wild",[13]; [22],40
same,"Plant response rating, Oat, Wild",[13]; [23],60
same,"Plant response rating, Oat, Wild",[13]; [24],60
same,"Plant response rating, Windgrass",[14]; [21],0
same,"Plant response rating, Windgrass",[14]; [22],0
same,"Plant response rating, Windgrass",[14]; [23],70
same,"Plant response rating, Windgrass",[14]; [24],70
same,"Plant response rating, Barley, Winter",[15]; [21],0
same,"Plant response rating, Barley, Winter",[15]; [22],0
same,"Plant response rating, Barley, Winter",[15]; [23],0
same,"Plant response rating, Barley, Winter",[15]; [24],50
same,"Plant response rating, Wheat, Winter",[16]; [21],0
same,"Plant response rating, Wheat, Winter",[16]; [22],0
same,"Plant response rating, Wheat, Winter",[16]; [23],40
same,"Plant response rating, Wheat, Winter",[16]; [24],65

# From patent publication US20100267561A1, “HERBICIDAL PYRIDAZINONE DERIVATIVES” (priority 2007, published 2010)
